In US20260210856A1, “CONJUGATED OLIGOELECTROLYTES WITH BORON-DIPYRROMETHENE CORES AND METHODS THEREOF” (National University of Singapore, priority 2022, published 2026):

How the values were obtained:
[1] = Fluorescence imaging of stained GUVs; format: physicochemical; settings: POPC GUV, normal light
Source text: Giant unilamellar vesicles (GUVs) composed of 1-palmitoyl-2-oleoyl-glycero-3-phosphocholine (POPC) were chosen as the model membrane system for the initial studies because of their ideal size (diameter>1 μm) for imaging via optical microscopy. […] COE-BY series are thus embedded within the bilayer as membrane-spanning probes, a geometric consideration relevant to measuring membrane tension across the whole lipid bilayer, instead of a single leaflet.

HeLa cells [2] = test: Time-dependent colocalization with organelle probes, confocal microscopy; format: cell-based
Method: (b) Confocal image of A549 cells stained with 1 μM COE-BYPhOC4. Confocal images of (c) A549 and (d) HeLa cells. Cells were prestained with COE-BYPhOC4 (red) for 4 hours and then stained with commercial plasma membrane dye CellMask Deep Red (blue and green, respectively) for 5 min. (e) Confocal images for time-dependent colocalization experiments. HeLa cells were stained with 1 μM COE-BYPhOC4 with different incubation times (2 h, 8 h, 24 h and 48 h). Cells were imaged in multiple channels to collect fluorescence signals from COE-BYPhOC4 and other commercial organelle dyes. Red: COE-BYPhOC4; the first column green: CellLight Early Endosome-GFP; the second column green: CellLight Late Endosome-GFP; the third column deep blue: CellLight Lysosomes-GFP; the fourth column sky blue: HCS LipidTOX™ Deep Red; the fifth column yellow: MitoTracker Deep Red. Scale bar: 5 μm.
Insights into the intracellular location of COE-BYPhOC4 at different time points were sought through colocalization experiments with a panel of common commercial organelle probes (CellLight Early Endosome-GFP, CellLight Late Endosome-GFP, CellLight Lysosomes-GFP, LipidTOX™ Deep Red, and MitoTracker Deep Red). To label the vesicles in the endocytic pathway with high specificity and avoid dye translocation associated with alkalinizing effects and equilibrium shifts after extended durations, we elected to use GFP-tagged markers that are definitive for each vesicle subtype, namely Rab5a, Rab7a, and Lamp-1 for early endosomes, late endosomes, and lysosomes respectively. […] Subsequently at 8 hours, the highest overlay can be observed from COEs and the late endosome marker. Prolonged incubation beyond this point further increased the degree of colocalization, from 0.73 at 8 hours to 0.95 at 48 h.

A549 cells = test: Uptake after pretreatment with endocytic inhibitors, flow cytometry; format: cell-based; settings: 1 μM dye, 3 h
Method: (§1) To further understand the internalization of COE-BYPhOC4, A549 and HeLa cells were pretreated with endocytic inhibitors including pharmacological treatments genistein (caveolae-dependent), chlorpromazine (clathrin-dependent) and low temperature (energy-dependent). Cells were then stained by treatment with 1 μM COE-BYPhOC4 and the endocytosis inhibition efficiency was characterized by flow cytometry and fluorescence confocal imaging. […] The confocal images in FIG. 13C provide additional confirmation of this endocytosis pathway. Fluorescence signals are only observed on the plasma membranes in the chlorpromazine pretreated group, while COE-BYPhOC4 readily underwent endocytosis and appeared as red vesicular puncta in the other three groups. Successful plasma membrane staining similar to FIG. 12A also provides evidence of insertion into the membrane prior to endocytosis and subsequent trafficking together with other lipid molecules, as opposed to being directly engulfed within intracellular vesicles. This feature enables the dye to follow the endosomal pathway throughout the maturation process beginning from the plasma membrane, as opposed to commonly employed pH-dependent methods to control accumulation within vesicle subtypes.

HeLa cells [3] = test: as above; format: cell-based; settings: 1 μM dye, 3 h
Method: as §1

MDCK cells = test: Confocal microscopy of stained cells; format: cell-based; settings: 1 μM, 10 minutes
Source text: Our next objective was to study the cellular distribution of COE-BYPhOC4 series at different time points by conventional confocal microscopy.

HeLa cells [4] = test: Brightness of stained HeLa cells by flow cytometry; format: cell-based; settings: FIG. 11
Source text: To evaluate their potential use as fluorescent probes for intracellular imaging, we first analyzed the brightness of each COE-BY molecule when used to stain HeLa cells using flow cytometry. As flow cytometry reports the fluorescence intensity per cell, this analysis would enable simultaneous evaluation of the cellular uptake and brightness. […] Based on these parameters, COE-BYPhOC4 was chosen for further in vitro imaging studies.

[5] = Fluorescence lifetime in water:glycerol mixtures of varying viscosities; format: physicochemical; settings: 590 nm, 20° C.
Method: The BODIPY unit of COE-BYs are sensitive to the viscosity of its environment. As an example, COE-BYPhMe was added to mixtures of water and glycerol at various ratios. The viscosity of the local environment has the most significant effect on its emission intensity and emission lifetime. The plot of log τ (fluorescence lifetime) versus log η (solvent viscosity) is fitted by a straight line.
We examined the sensitivity of COE-BYs to changes in viscosity in solution by using different glycerol and water mixtures. The viscosities of the solutions were increased through increases of the glycerol fraction. Of interest was the relationship between the viscosity (η) and the amplitude-weighted average emission lifetime (τw), which is defined by
Each individual lifetime component Tr is normalized to the corresponding amplitude (Ai) derived from fitting the emission decay to a multiexponential model, where p is the total number of exponents (1 or 2). […] It is known that increases in environmental viscosity restricts the rotation of the phenyl rings surrounding the BODIPY unit, which diminishes non-radiative decay pathways of the excited state, resulting in longer fluorescence lifetimes. […] Due to the low emission, we could not accurately extract emission lifetimes from the fluorescence decays of COE-BYPhCN and COE-BYPhNO.

- fluorescence of stained GUV [1]: strong uniform fluorescence
- amplitude-weighted average emission lifetime τw ([5]; solution viscosity 22.5 cP): 0.5 ns
- amplitude-weighted average emission lifetime τw ([5]; solution viscosity 939 cP): 1.2 ns
Structure (SMILES): CCCCOc1ccc(C2=C3C(C)=C(c4ccc(/C=C/c5cc(OCCCCCC[N+](C)(C)C)c(OCCCCCC[N+](C)(C)C)c(OCCCCCC[N+](C)(C)C)c5)cc4)C(C)=[N+]3[B-](F)(F)n3c(C)c(-c4ccc(/C=C/c5cc(OCCCCCC[N+](C)(C)C)c(OCCCCCC[N+](C)(C)C)c(OCCCCCC[N+](C)(C)C)c5)cc4)c(C)c32)cc1.[I-].[I-].[I-].[I-].[I-].[I-] [COE-BYPhOC4]
- degree of colocalization with late endosome marker (HeLa cells [2]; 1 μM, 8 hours): 0.73
- degree of colocalization with late endosome marker (HeLa cells [2]; 1 μM, 48 h): 0.95
- Pearson's correlation coefficient value (R) relative to GFP-tagged Rab5a (early endosome) (HeLa cells [2]; 1 μM, incubation 2 h): 0.71
- colocalization with lipid droplets and mitochondria markers (HeLa cells [2]; all timepoints): poor colocalization with lipid droplets and mitochondria markers at all timepoints
- dye fluorescence intensity relative to the untreated group (A549 cells; A549, chlorpromazine pretreatment): 14%
- dye fluorescence intensity relative to the untreated group (A549 cells; A549, genistein pretreatment): 95%
- dye fluorescence intensity relative to the untreated group (HeLa cells [3]; chlorpromazine pretreatment): 21%
- dye fluorescence intensity relative to the untreated group (HeLa cells [3]; genistein pretreatment): 92%
- staining pattern (MDCK cells): strong fluorescence signals were observed on the plasma membranes
- brightness of stained cells (HeLa cells [4]): highest brightness
